Reference: ChEMBL document CHEMBL5576063, “Design, concise synthesis and evaluation of novel amide-based combretastatin A-4 analogues as potent tubulin inhibitors” (Bioorg Med Chem Lett, 2024)
pIC50: −log10 of the molar value. The source made the active and inactive calls. The calls are words filed in the database; no cut-off is given here.

Experiments:
A549 [1] = assay: Antiproliferative activity against human A549 cells assessed as inhibition of cell growth by MTT assay; assay type: functional, cell-based
HT-29 = assay: Antiproliferative activity against human HT-29 cells assessed as inhibition of cell growth by MTT assay; assay type: functional, cell-based
HeLa = assay: Antiproliferative activity against human HeLa cells assessed as inhibition of cell growth by MTT assay; assay type: functional, cell-based
Tubulin (Homo sapiens) [2] = target: T1, Tubulin (Homo sapiens) (UniProt P68371+Q9H4B7+P0DPH7+P68366+Q13509+Q71U36+P04350+Q3ZCM7+P07437+P68363+Q9BQE3+Q6PEY2+Q13885+Q9BVA1+Q9BUF5); assay: Inhibition of tubulin polymerization (unknown origin) at 10 uM measured upto 30 mins by spectrophotometry based analysis relative to control; assay type: protein-complex assay
HCT-116 = assay: Antiproliferative activity against human HCT-116 cells assessed as inhibition of cell growth by MTT assay; assay type: functional, cell-based
[3] = Antiproliferative activity against HEK293 cells assessed as inhibition of cell growth by MTT assay; assay type: toxicity, cell-based; settings: human
Tubulin (Homo sapiens) [4] = target: T1, Tubulin (Homo sapiens); assay: Inhibition of tubulin polymerization (unknown origin) at 10 uM measured upto 30 mins by spectrophotometry analysis; assay type: protein-complex assay
A549 [5] = assay: Induction of apoptosis in human A549 cells assessed as late apoptotic cells at 1.2 uM measured after 24 hrs by annexin-V/PI staining based flow cytometry analysis (reference value: 0.25%); assay type: functional
A549 [6] = assay: Induction of cell cycle arrest in human A549 cells assessed as accumulation of cells at G0/G1 phase at 1.2 uM measured after 24 hrs by PI staining based flow cytometry analysis (reference value: 55.88%); assay type: functional
A549 [7] = assay: Induction of cell cycle arrest in human A549 cells assessed as accumulation of cells at G2/M phase at 4.8 uM measured after 24 hrs by PI staining based flow cytometry analysis (reference value: 21.00%); assay type: functional
A549 [8] = assay: Induction of apoptosis in human A549 cells assessed as viable cells at 2.4 uM measured after 24 hrs by annexin-V/PI staining based flow cytometry analysis (reference value: 97.4%); assay type: functional; settings: read-out: Activity
A549 [9] = assay: Induction of apoptosis in human A549 cells assessed as early apoptotic cells at 2.4 uM measured after 24 hrs by annexin-V/PI staining based flow cytometry analysis (reference value: 1.87%); assay type: functional
A549 [10] = assay: Induction of apoptosis in human A549 cells assessed as late apoptotic cells at 4.8 uM measured after 24 hrs by annexin-V/PI staining based flow cytometry analysis (reference value: 0.25%); assay type: functional
Tubulin (Homo sapiens) [11] = target: T1, Tubulin (Homo sapiens); assay: Inhibition of tubulin polymerization (unknown origin) at 6 uM measured upto 30 mins by spectrophotometry analysis; assay type: protein-complex assay
A549 [12] = assay: Induction of apoptosis in human A549 cells assessed as viable cells at 1.2 uM measured after 24 hrs by annexin-V/PI staining based flow cytometry analysis (reference value: 97.4%); assay type: functional; settings: read-out: Activity
Tubulin = assay: Inhibition of tubulin polymerization (unknown origin) measured upto 30 mins by spectrophotometry based analysis; assay type: protein-complex assay, Homo sapiens
A549 [13] = assay: Induction of apoptosis in human A549 cells assessed as necrotic cells at 1.2 uM measured after 24 hrs by annexin-V/PI staining based flow cytometry analysis (reference value: 0.48%); assay type: functional
A549 [14] = assay: Induction of apoptosis in human A549 cells assessed measured after 24 hrs by annexin-V/PI staining based flow cytometry analysis; assay type: functional, cell-based; settings: dose 1.2-4.8 µM
A549 [15] = assay: Induction of apoptosis in human A549 cells assessed as viable cells at 4.8 uM measured after 24 hrs by annexin-V/PI staining based flow cytometry analysis (reference value: 97.4%); assay type: functional; settings: read-out: Activity
A549 [16] = assay: Induction of cell cycle arrest in human A549 cells assessed as accumulation of cells at G0/G1 phase at 2.4 uM measured after 24 hrs by PI staining based flow cytometry analysis (reference value: 55.88%); assay type: functional
A549 [17] = assay: Induction of apoptosis in human A549 cells assessed as late apoptotic cells at 2.4 uM measured after 24 hrs by annexin-V/PI staining based flow cytometry analysis (reference value: 0.25%); assay type: functional
A549 [18] = assay: Induction of cell cycle arrest in human A549 cells assessed as accumulation of cells at S phase at 4.8 uM measured after 24 hrs by PI staining based flow cytometry analysis (reference value: 23.17%); assay type: functional
A549 [19] = assay: Induction of cell cycle arrest in human A549 cells assessed as accumulation of cells at G2/M phase measured after 24 hrs by PI staining based flow cytometry analysis; assay type: functional; settings: dose 1.2-4.8 µM
A549 [20] = assay: Induction of cell cycle arrest in human A549 cells assessed as accumulation of cells at G2/M phase at 1.2 uM measured after 24 hrs by PI staining based flow cytometry analysis (reference value: 21.00%); assay type: functional
A549 [21] = assay: Induction of cell cycle arrest in human A549 cells assessed as accumulation of cells at S phase at 1.2 uM measured after 24 hrs by PI staining based flow cytometry analysis (reference value: 23.17%); assay type: functional
A549 [22] = assay: Induction of apoptosis in human A549 cells assessed as necrotic cells at 2.4 uM measured after 24 hrs by annexin-V/PI staining based flow cytometry analysis (reference value: 0.48%); assay type: functional
A549 [23] = assay: Induction of cell cycle arrest in human A549 cells assessed as accumulation of cells at G0/G1 phase at 4.8 uM measured after 24 hrs by PI staining based flow cytometry analysis (reference value: 55.88%); assay type: functional
A549 [24] = assay: Induction of apoptosis in human A549 cells assessed as early apoptotic cells at 1.2 uM measured after 24 hrs by annexin-V/PI staining based flow cytometry analysis (reference value: 1.87%); assay type: functional
A549 [25] = assay: Induction of apoptosis in human A549 cells assessed as early apoptotic cells at 4.8 uM measured after 24 hrs by annexin-V/PI staining based flow cytometry analysis (reference value: 1.87%); assay type: functional
A549 [26] = assay: Induction of cell cycle arrest in human A549 cells assessed as accumulation of cells at G2/M phase at 2.4 uM measured after 24 hrs by PI staining based flow cytometry analysis (reference value: 21.00%); assay type: functional
A549 [27] = assay: Induction of cell cycle arrest in human A549 cells assessed as accumulation of cells at S phase at 2.4 uM measured after 24 hrs by PI staining based flow cytometry analysis (reference value: 23.17%); assay type: functional
A549 [28] = assay: Induction of apoptosis in human A549 cells assessed as necrotic cells at 4.8 uM measured after 24 hrs by annexin-V/PI staining based flow cytometry analysis (reference value: 0.48%); assay type: functional

Work on COc1ccc(/C=C(/C(=O)Nc2ccc(Cl)cc2)c2cc(OC)c(OC)c(OC)c2)cc1OC(C)=O yielded a pIC50 (A549 [1]) of 5.58, a pIC50 (HT-29) of 4.52 and a pIC50 (HeLa) of 4.76. The inhibition (Tubulin (Homo sapiens) [2]) was 3%, the pIC50 (HCT-116) was 4.69 and the pIC50 [3] was < 4.00.
With CC(=O)O[C@H]1C(=O)[C@@]2(C)[C@H]([C@H](OC(=O)c3ccccc3)[C@]3(O)C[C@H](OC(=O)[C@H](O)[C@@H](NC(=O)c4ccccc4)c4ccccc4)C(C)=C1C3(C)C)[C@]1(OC(C)=O)CO[C@@H]1C[C@@H]2O the inhibition (Tubulin (Homo sapiens) [4]) was “inactive”.
For COc1ccc(/C=C(/C(=O)NC2CCCC2)c2cc(OC)c(OC)c(OC)c2)cc1O, the pIC50 (A549 [1]) was < 4.30.
With COc1ccc(/C=C(/C(=O)NCc2ccccc2)c2cc(OC)c(OC)c(OC)c2)cc1O the pIC50 (A549 [1]) was < 4.30.
In the case of COc1ccc(NC(=O)/C(=C/c2ccc(OC)c(O)c2)c2cc(OC)c(OC)c(OC)c2)cc1, the pIC50 (A549 [1]) was < 4.30.
Work on COc1ccc(/C=C(/C(=O)Nc2ccc(C)cc2)c2cc(OC)c(OC)c(OC)c2)cc1OC(C)=O yielded a pIC50 (A549 [1]) of 5.40.
For COc1ccc(/C=C(/C(=O)Nc2ccc(N3CCN(C)CC3)cc2)c2cc(OC)c(OC)c(OC)c2)cc1OC(C)=O, the pIC50 (A549 [1]) was < 4.30.
Work on COc1ccc(/C=C(/C(=O)Nc2ccccc2)c2cc(OC)c(OC)c(OC)c2)cc1OC(C)=O yielded a pIC50 (A549 [1]) of 5.41.
Work on CCN1CCN(c2ccc(NC(=O)/C(=C/c3ccc(OC)c(OC(C)=O)c3)c3cc(OC)c(OC)c(OC)c3)cc2)CC1 yielded a pIC50 (A549 [1]) of 5.31.
Compound COc1ccc(/C=C\c2cc(OC)c(OC)c(OC)c2)cc1O [COMBRETASTATIN A4] has a pIC50 (A549 [1]) of 6.96, a pIC50 (HT-29) of 5.78 and a pIC50 (HeLa) of 7.10. The pIC50 (HCT-116) was 5.32 and the pIC50 [3] was 4.32.
For CCN1CCN(c2ccc(NC(=O)/C(=C/c3ccc(OC)c(O)c3)c3cc(OC)c(OC)c(OC)c3)cc2)CC1, the pIC50 (A549 [1]) was 4.34.
For COc1ccc(/C=C(/C(=O)Nc2ccc(C)cc2)c2cc(OC)c(OC)c(OC)c2)cc1O, the pIC50 (A549 [1]) was 4.61.
With COc1ccc(/C=C(/C(=O)NC2CC2)c2cc(OC)c(OC)c(OC)c2)cc1OC(C)=O the pIC50 (A549 [1]) was < 4.30.
COc1ccc(/C=C(/C(=O)Nc2ccccc2)c2cc(OC)c(OC)c(OC)c2)cc1O showed a pIC50 (A549 [1]) of 5.62, an Activity (A549 [5]) of 1.35% and an Activity (A549 [6]) of 53.47%. It also gave a pIC50 (HT-29) of 5.27, an Activity (A549 [7]) of 32.36% and a viability at 2.4 µM (A549 [8]) of 93.1%. The Activity (A549 [9]) was 1.87%, the Activity (A549 [10]) was 5.15% and the inhibition (Tubulin (Homo sapiens) [11]) was “Active”. It also gave a viability at 1.2 µM (A549 [12]) of 96.4%, a pIC50 (Tubulin) of 5.16 and an Activity (A549 [13]) of 0.27%. For the same compound, the Activity (A549 [14]) was “Dose-Dependent Effect”, the pIC50 (HeLa) was 4.99 and the viability at 4.8 µM (A549 [15]) was 86.9%. It also gave an Activity (A549 [16]) of 40.69%, an Activity (A549 [17]) of 3.33% and an inhibition (Tubulin (Homo sapiens) [2]) of 62%. For the same compound, the Activity (A549 [18]) was 13.9%, the Activity (A549 [19]) was “Dose-Dependent Effect” and the Activity (A549 [20]) was 28.81%. It also gave an Activity (A549 [21]) of 22.72%, an Activity (A549 [22]) of 1.65% and an Activity (A549 [23]) of 53.73%. It also gave a pIC50 (HCT-116) of 5.20, an Activity (A549 [24]) of 1.98% and an Activity (A549 [25]) of 4.97%. It also gave an Activity (A549 [26]) of 46.63%, an Activity (A549 [27]) of 32.71% and an Activity (A549 [28]) of 2.96%. For the same compound, the pIC50 [3] was < 4.00.
For COc1ccc(/C=C(/C(=O)NC2CCCC2)c2cc(OC)c(OC)c(OC)c2)cc1OC(C)=O, the pIC50 (A549 [1]) was < 4.30.
In the case of CCc1ccc(NC(=O)/C(=C/c2ccc(OC)c(OC(C)=O)c2)c2cc(OC)c(OC)c(OC)c2)cc1, the pIC50 (A549 [1]) was 5.45.
With COc1ccc(/C=C(/C(=O)Nc2cc(OC)c(OC)c(OC)c2)c2cc(OC)c(OC)c(OC)c2)cc1O the pIC50 (A549 [1]) was < 4.30.
With CCc1ccc(NC(=O)/C(=C/c2ccc(OC)c(O)c2)c2cc(OC)c(OC)c(OC)c2)cc1 the pIC50 (A549 [1]) was < 4.30.
In the case of COc1ccc(/C=C(/C(=O)Nc2ccc(N3CCN(C)CC3)cc2)c2cc(OC)c(OC)c(OC)c2)cc1O, the pIC50 (A549 [1]) was < 4.30.
COc1ccc(/C=C(/C(=O)Nc2ccc(C(C)C)cc2)c2cc(OC)c(OC)c(OC)c2)cc1OC(C)=O gave a pIC50 (A549 [1]) of 5.97, a pIC50 (HT-29) of 4.74 and a pIC50 (HeLa) of 4.63. For the same compound, the inhibition (Tubulin (Homo sapiens) [2]) was 3%, the pIC50 (HCT-116) was 4.54 and the pIC50 [3] was < 4.00.
In the case of COc1ccc(/C=C(/C(=O)NC2CC2)c2cc(OC)c(OC)c(OC)c2)cc1O, the pIC50 (A549 [1]) was < 4.30.
With COc1ccc(/C=C(/C(=O)NCc2ccccc2)c2cc(OC)c(OC)c(OC)c2)cc1OC(C)=O the pIC50 (A549 [1]) was 4.47.
COc1ccc(NC(=O)/C(=C/c2ccc(OC)c(OC(C)=O)c2)c2cc(OC)c(OC)c(OC)c2)cc1 showed a pIC50 (A549 [1]) of 5.52.
In the case of COc1ccc(/C=C(/C(=O)Nc2ccc(Cl)cc2)c2cc(OC)c(OC)c(OC)c2)cc1O, the pIC50 (A549 [1]) was < 4.30.
In the case of COc1ccc(/C=C(/C(=O)Nc2cc(OC)c(OC)c(OC)c2)c2cc(OC)c(OC)c(OC)c2)cc1OC(C)=O, the pIC50 (A549 [1]) was 6.14, the pIC50 (HT-29) was 5.33 and the pIC50 (HeLa) was 5.01. The inhibition (Tubulin (Homo sapiens) [2]) was 34%, the pIC50 (HCT-116) was 5.26 and the pIC50 [3] was < 4.00.
COc1ccc(/C=C(/C(=O)Nc2ccc(C(C)C)cc2)c2cc(OC)c(OC)c(OC)c2)cc1O gave a pIC50 (A549 [1]) of 4.36.
